Consider 46 compounds from PubChem BioAssay AID493086 (The Scripps Research Institute Molecular Screening Center, 2011).

Structures are written as SMILES. Activity calls are given as the source filed them.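 The calls were made as follows: active = IC50 at or below 10 µM; inactive = IC50 above 10 µM.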 Bounds are passed on as bounds.

For this test, the target named is Induced myeloid leukemia cell differentiation protein Mcl-1 (Homo sapiens) (UniProt Q07820). Briefly: MCL1 binding to BIM-BH3 peptide, inhibitors, late-stage follow-up, biochemical, fluorescence polarization, assay provider data, powder samples (AID 493086). Conditions: GST-MCL1 / FITC-BIM-BH3 fluorescence polarization.
Chain of Induced myeloid leukemia cell differentiation protein Mcl-1 (Homo sapiens) (Q07820 whole entry, looked up): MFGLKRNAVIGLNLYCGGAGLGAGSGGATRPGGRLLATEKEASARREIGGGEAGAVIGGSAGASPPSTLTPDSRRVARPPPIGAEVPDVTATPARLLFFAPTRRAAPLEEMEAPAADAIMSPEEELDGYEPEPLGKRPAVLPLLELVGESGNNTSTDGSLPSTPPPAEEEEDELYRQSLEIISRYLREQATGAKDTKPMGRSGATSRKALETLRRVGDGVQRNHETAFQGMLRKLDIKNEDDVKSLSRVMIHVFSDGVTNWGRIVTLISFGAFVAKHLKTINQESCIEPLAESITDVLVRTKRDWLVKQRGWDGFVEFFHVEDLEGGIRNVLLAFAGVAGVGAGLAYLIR
For the compound `COc1cccc(NC(=O)CN(C)C(=O)c2cc(-c3ccco3)nc3ccccc23)c1`, the IC50 was > 20 µM (inactive). As to `CCC(=O)Nc1nnc(Cc2ccccc2)s1`, the IC50 was > 20 µM (inactive).

Take `COc1ccc(NC(=O)c2cc(-c3ccc(C)o3)nc3ccccc23)cc1OC`: the IC50 was > 20 µM (inactive). Regarding `COc1ccc(Cc2nnc(NC(=O)Cc3csc4ccccc34)s2)cc1OC`, the IC50 was > 20 µM (inactive). The result for `Cc1ccc(NC(=O)c2cc(-c3ccco3)nc3ccccc23)cc1S(=O)(=O)N1CCOCC1` reads “inactive”; that for `O=C(NCCCN1CCOCC1)c1cc(-c2ccco2)nc2ccccc12`, > 20 µM (inactive).

Turning to `CCCCn1c(N)c(N(CC(C)C)C(=O)c2cc(-c3ccco3)nc3ccccc23)c(=O)[nH]c1=O`, the IC50 was > 20 µM (inactive). In the case of `CC(C)CCNC(=O)c1cc(-c2ccco2)nc2ccccc12`, the IC50 was > 20 µM (inactive).

`Cc1ccc(NC(=O)c2cc(-c3ccc(C)o3)nc3ccccc23)nc1`: the IC50 result is “inactive”.

Regarding `CCCC(=O)Nc1nnc(Cc2ccccc2)s1`, the IC50 is > 20 µM (inactive). Regarding `Cc1ccc(-c2cc(C(=O)N(C)CC(=O)Nc3ccccc3Br)c3ccccc3n2)o1`, the IC50 is > 20 µM (inactive). On to `CCOC(=O)C1CCCN(C(=O)c2cc(-c3ccco3)nc3ccccc23)C1` (stereo unspecified), for which the IC50 is 5.5 µM. The result for `COc1ccc(Cc2nnc(NC(=O)Cc3ccc4ccccc4c3)s2)cc1OC` reads > 20 µM (inactive); that for `Cc1ccc(-c2cc(C(=O)N3CC(C)OC(C)C3)c3ccccc3n2)o1` (stereo unspecified), > 20 µM (inactive); that for `Cc1cccc(NC(=O)c2cc(-c3ccco3)nc3ccccc23)n1`, “inactive”. `COc1ccccc1NC(=O)c1cc(-c2ccc(C)o2)nc2ccccc12`: the IC50 was > 20 µM (inactive).

For `CC(=O)c1cccc(NC(=O)c2cc(-c3ccco3)nc3ccccc23)c1`, the IC50 is > 20 µM (inactive). Take `COc1cccc(CC(=O)Nc2nnc(Cc3ccc(OC)c(OC)c3)s2)c1`: the IC50 was > 20 µM (inactive). Turning to `COc1ccc(Cc2nnc(NC(=O)Cc3ccc(C)cc3)s2)cc1OC`, the IC50 is > 20 µM (inactive).

For `COc1ccc(CC(=O)Nc2nnc(Cc3ccc(OC)c(OC)c3)s2)cc1`, the IC50 was > 20 µM (inactive). Regarding `COc1ccc(Cc2nnc(NC(=O)C(=O)c3ccco3)s2)cc1OC`, the IC50 was > 20 µM (inactive). `CCCCCCNC(=O)c1cc(-c2ccco2)nc2ccccc12`: the IC50 is > 20 µM (inactive). Take `Cc1csc(NC(=O)c2cc(-c3ccco3)nc3ccccc23)n1`: the IC50 result was “inactive”.

`CC(=O)N1CCN(C(=O)c2cc(-c3ccc(C)o3)nc3ccccc23)CC1`: the IC50 was > 20 µM (inactive).

As to `Cc1ccc(-c2cc(C(=O)Nc3ccccc3C)c3ccccc3n2)o1`, the IC50 was > 20 µM (inactive). The result for `CCN1CCN(C(=O)c2cc(-c3ccco3)nc3ccccc23)CC1` reads 6.7 µM; that for `COc1ccc(Cc2nnc(NC(=O)Cc3cccs3)s2)cc1OC`, > 20 µM (inactive); that for `Cc1ccc(-c2cc(C(=O)N3CCOCC3)c3ccccc3n2)o1`, > 20 µM (inactive). The result for `COCCN(C(=O)c1cc(-c2ccco2)nc2ccccc12)c1c(N)n(Cc2ccccc2)c(=O)[nH]c1=O` reads 3.4 µM; that for `O=C(Nc1ccc(F)cc1F)c1cc(-c2ccco2)nc2ccccc12`, > 20 µM (inactive). As to `O=C(Nc1cccc(S(=O)(=O)NC2=NCCCCC2)c1)c1cc(-c2ccco2)nc2ccccc12`, the IC50 is > 20 µM (inactive). With `CN(CCOc1ccc(Cl)cc1)C(=O)c1cc(-c2ccco2)nc2ccccc12`, the IC50 is > 20 µM (inactive).

As to `O=C(NC(=S)Nc1cccc(S(=O)(=O)NC2=NCCC2)c1)c1cc(-c2ccco2)nc2ccccc12`, the IC50 is > 20 µM (inactive). The result for `CCCCn1c(N)c(N(CCOC)C(=O)c2cc(-c3ccco3)nc3ccccc23)c(=O)[nH]c1=O` reads > 20 µM (inactive); that for `CCCn1c(N)c(N(CCOC)C(=O)c2cc(-c3ccco3)nc3ccccc23)c(=O)[nH]c1=O`, > 20 µM (inactive); that for `COC(=O)C1CCN(C(=O)c2cc(-c3ccco3)nc3ccccc23)CC1`, 7.3 µM.

As for `O=C(CCn1nnc2ccccc21)Nc1nnc(Cc2ccc(F)cc2)s1`, the IC50 is > 20 µM (inactive). As for `O=C(c1cc(-c2ccco2)nc2ccccc12)N(Cc1nnc(-c2ccc(Cl)cc2)o1)C1CC1`, the IC50 was > 20 µM (inactive). The result for `COc1ccc(Cc2nnc(NC(=O)Cc3ccc4c(c3)OCO4)s2)cc1OC` reads > 20 µM (inactive).

In the case of `O=C(Nc1ccccc1N1CCOCC1)c1cc(-c2ccco2)nc2ccccc12`, the IC50 entry was “inactive”.

With `Cc1ccc(-c2cc(C(=O)NCCN3CCOCC3)c3ccccc3n2)o1`, the IC50 is > 20 µM (inactive).

As for `O=C(Nc1cccc(F)c1)c1cc(-c2ccco2)nc2ccccc12`, the IC50 is > 20 µM (inactive). Turning to `O=C(Nc1nc2ccccc2s1)c1cc(-c2ccco2)nc2ccccc12`, the IC50 was > 20 µM (inactive). For `CN(CC(=O)Nc1ccc(F)cc1)C(=O)c1cc(-c2ccco2)nc2ccccc12`, the IC50 was > 20 µM (inactive). As for `COc1ccc(NC(=O)c2cc(-c3ccc(C)o3)nc3ccccc23)c(OC)c1`, the IC50 is > 20 µM (inactive). `O=C(Nc1nccs1)c1cc(-c2ccco2)nc2ccccc12`: the IC50 entry is “inactive”.

What is called IC50 is the midpoint of a concentration-inhibition curve.
